Laboratory results as given in patent US20070270382A1, “Composition for Protecting Skin” (priority 2003, published 2007).

Experiments:
hairless mice = test: Photoaging inhibitory effect of sphingomyelin (animal test, UV irradiation); format: in vivo
skin barrier = test: Skin barrier function improving effect: TEWL repair after tape stripping, before and after taking sphingomyelin; format: in vivo, human; details: for difference in TEWL, taking vs not-taking sphingomyelin (in words): 2 and 4 days
Description: In this Example, a person's sebum film was artificially injured to increase an amount of water loss. After that, it was confirmed that there was a difference of repair degrees of water loss before and after taking sphingomyelin. It was also confirmed that how much skin wrinkles due to the water loss were improved by taking sphingomyelin. A capsule containing sphingomyelin 50 mg, phosphatidylserine 10 mg and gamma-linoleic acid 12.5 mg was used as a test material. Two capsules per one time were taken two times (morning and evening) a day. That is, four capsules were taken per a day and a medication period was three weeks. Tests were carried out for 18 males and 3 females and the testing method was as follows. An amount of water loss of skin was measured for an inner region of an arm using a TEWL meter TM210. A skin wound was induced by stripping off corneum with a tape many times and increasing a TEWL value (normally, around 6˜10) to 30 or more. In other words, after inducing an injury of a skin barrier using a tape, repair aspects of TEWL values in the injured region before and after taking sphingomyelin were compared and thus a skin barrier restoring effect of sphingomyeling was confirmed. Skin barrier function in a normal state was checked by measuring TEWL in a forearm from 21 persons. A TEWL value was increased to 30 or more after tape stripping and then TEWL was measured every other day. TEWL in a normal state was measured together with a measurement of TEWL in an injured region because TEWL in a normal state can be different according to conditions of temperature, humidity and weather, etc. Meanwhile, a same test was carried out to measure a medication effect of sphingomyelin and TEWL of skin was measured while taking sphingomyelin two times a day.

skin wrinkles = test: Skin wrinkle improving effect: wrinkles adjacent to eyes observed using a Charm View; format: in vivo, human; details: four persons having a weak skin barrier function; before and after taking sphingomyelin
Description: A capsule containing sphingomyelin 50 mg, phosphatidylserine 10 mg and gamma-linoleic acid 12.5 mg was used as a test material. Two capsules per one time were taken two times (morning and evening) a day. That is, four capsules were taken per a day and a medication period was three weeks. […] Four persons having a weak skin barrier function of the 21 examinees were selected and their skin states were measured before and after taking sphingomyelin.

With Sphingomyelin the “state of skin (photographs, FIGS. 2 to 4)” value (hairless mice; UV irradiation+SM application vs UV only or UV+Vehicle, after completion of the test) was “the skin was extremely injured, compared to the case that the substrate containing sphingomyelin was applied after UV irradiation”, the “skin barrier function (FIG. 1)” value (hairless mice; UV irradiation+SM application, 0.5% in 1,3-butyleneglycol/distilled water/ethanol 5:3:2, UV three times per week for three months, vs UV only or UV+Vehicle) was “the skin barrier was not easily damaged and remained in a level of the early stage of the test” and the “skin barrier function (FIG. 1)” value (hairless mice; UV irradiation+SM oral administration) was “skin barrier protecting effect of sphingomyelin against ultraviolet was exhibited”. For the same substance, the “skin histological test (FIG. 5): epidermis and dermis” value (hairless mice; sphingomyelin applied after UV irradiation vs only UV irradiation) was “the epidermis and dermis thereof were similar to those of at the early stage of the test”, the “difference in TEWL, taking vs not-taking sphingomyelin (in words)” value (skin barrier; 21 persons (Table 3)) was “no significant difference” and the “difference in TEWL, taking vs not-taking sphingomyelin (in words)” value (skin barrier; weak skin barrier function (Table 5)) was “no significant difference”. The “difference of TEWL decreases, taking vs not-taking sphingomyelin (in words)” value (skin barrier; 6 days, weak skin barrier function (Table 5)) was “significant difference of TEWL decreases”, the “% TEWL, taking sphingomyelin” value (skin barrier; day 0, 21 persons, capsule with sphingomyelin 50 mg, phosphatidylserine 10 mg, gamma-linoleic acid 12.5 mg, four capsules per day) was 100 % TEWL and the “% TEWL, taking sphingomyelin” value (skin barrier; day 0, persons with weak skin barrier function (high TEWL in normal region)) was 100 % TEWL. The “% TEWL, taking sphingomyelin” value (skin barrier; day 0, six examinees with relatively high decrease rate of TEWL) was 100 % TEWL, the “% TEWL, taking sphingomyelin” value (skin barrier; day 2, 21 persons, oral capsules) was 43.2 ± 11.5 % TEWL and the “% TEWL, taking sphingomyelin” value (skin barrier; day 2, persons with weak skin barrier function) was 36.9 ± 18.9 % TEWL. For the same substance, the “% TEWL, taking sphingomyelin” value (skin barrier; day 2, six examinees with relatively high decrease rate of TEWL) was 45.7 ± 10.7 % TEWL, the “% TEWL, taking sphingomyelin” value (skin barrier; day 4, 21 persons, oral capsules) was 23.1 ± 8.1 % TEWL and the “% TEWL, taking sphingomyelin” value (skin barrier; day 4, persons with weak skin barrier function) was 19.8 ± 8 % TEWL. The “% TEWL, taking sphingomyelin” value (skin barrier; day 4, six examinees with relatively high decrease rate of TEWL) was 23.7 ± 7.5 % TEWL, the “% TEWL, taking sphingomyelin” value (skin barrier; day 6, 21 persons, oral capsules) was 14.8 ± 7 % TEWL and the “% TEWL, taking sphingomyelin” value (skin barrier; day 6, persons with weak skin barrier function) was 9.7 ± 5.8 % TEWL. The “% TEWL, taking sphingomyelin” value (skin barrier; day 6, six examinees with relatively high decrease rate of TEWL) was 7.4 ± 4.3 % TEWL, the “difference in TEWL decrease, taking vs not-taking sphingomyelin (in words)” value (skin barrier; six days, 21 persons (FIG. 11), paired t-test) was “significant difference in a TEWL decrease” and the “wrinkle improving effect (FIG. 14)” value (skin wrinkles) was “had a wrinkle improving effect”.
